Assay [1] has as its system Proto-oncogene tyrosine-protein kinase Src (Homo sapiens), P12931 [T341M]. In words: Inhibition of recombinant full-length human Src T341M mutant at 1 uM using GGEEEEYFELVKKKK as substrate after 40 mins in presence of [gamma-33P]ATP by scintillation counting method.
The target of assay [2] is Ephrin type-B receptor 3 (Homo sapiens) (UniProt P54753). In words: Inhibition of recombinant human EPHB3 (599 to 920 residues) at 1 uM using poly(Glu,Tyr) 4:1 as substrate after 40 mins in presence of [gamma-33P]ATP by scintillation counting method.
Assay [3] concerns the target Tyrosine-protein kinase Tec (Homo sapiens) (UniProt P42680). In words: Inhibition of recombinant activated human Tec (174 to end residues) at 1 uM using EFPIYDFLPAKKK as substrate after 40 mins in presence of [gamma-33P]ATP by scintillation counting method.
Assay [4] concerns the target FKBP12A/mTOR (Homo sapiens) (UniProt P62942+P42345). Put plainly: Inhibition of recombinant full-length human mTOR/FKBP12 at 1 uM after 40 mins in presence of [gamma-33P]ATP by scintillation counting method. It counts as protein-complex assay.
Assay [5] has as its target Phosphorylase b kinase gamma catalytic chain, skeletal muscle/heart isoform (Homo sapiens) (UniProt Q16816). In words: Inhibition of recombinant full-length human PhKgamma1 at 1 uM using KKLNRTLSFAEPG as substrate after 120 mins in presence of [gamma-33P]ATP by scintillation counting method.
Assay [6] deals with Testis-specific serine/threonine-protein kinase 1 (Homo sapiens) (UniProt Q9BXA7). Put plainly: Inhibition of recombinant full-length human TSSK1 at 1 uM using KKKVSRSGLYRSPSMPENLNRPR as substrate after 40 mins in presence of [gamma-33P]ATP by scintillation counting method.
Assay [7] deals with Cyclin-dependent kinase 2/cyclin E1 (Homo sapiens) (UniProt P24864+P24941). In words: Inhibition of recombinant full-length human CDK2/Cyclin E at 1 uM using histone H1 as substrate after 40 mins in presence of [gamma-33P]ATP by scintillation counting method. In kind it is protein-complex assay.
Assay [8] has as its target Homeodomain-interacting protein kinase 2 (Homo sapiens) (UniProt Q9H2X6). In words: Inhibition of recombinant human HIPK2 (165 to 564 residues) at 1 uM using myelin basic protein as substrate after 40 mins in presence of [gamma-33P]ATP by scintillation counting method.
The test system of assay [9] is Serine/threonine-protein kinase Chk2 (Homo sapiens), O96017 [I157T]. Put plainly: Inhibition of recombinant human CHK2 I157T mutant (5 to end residues) at 1 uM using KKKVSRSGLYRSPSMPENLNRPR as substrate after 40 mins in presence of [gamma-33P]ATP by scintillation counting method.
Assay [10] has as its target Serine/threonine-protein kinase pim-2 (Homo sapiens) (UniProt Q9P1W9). In words: Inhibition of recombinant human PIM2 (2 to end residues) at 1 uM using RSRHSSYPAGT as substrate after 40 mins in presence of [gamma-33P]ATP by scintillation counting method.
In assay [11] the target is CDK9/cyclin T1 (Homo sapiens) (UniProt O60563+P50750). Put plainly: Inhibition of recombinant full-length human CDK9/Cyclin T1 at 1 uM using KTFCGTPEYLAPEVRREPRILSEEEQEMFRDFDYIADWC as substrate after 40 mins in presence of [gamma-33P]ATP by scintillation counting method. It counts as protein-complex assay.
Assay [12] concerns the target Mitogen-activated protein kinase kinase kinase kinase 2 (Homo sapiens) (UniProt Q12851). In words: Inhibition of recombinant human GCK (1 to 473 residues) at 1 uM using myelin basic protein as substrate after 40 mins in presence of [gamma-33P]ATP by scintillation counting method.
The target in assay [13] is Serine/threonine-protein kinase SIK1 (Homo sapiens) (UniProt P57059). Put plainly: Inhibition of recombinant human SIK (1 to 281 residues) at 1 uM using AMARAASAAALARRR as substrate after 40 mins in presence of [gamma-33P]ATP by scintillation counting method.
The target of assay [14] is Phosphatidylinositol 4-phosphate 5-kinase type-1 alpha (Homo sapiens) (UniProt Q99755). Put plainly: Inhibition of recombinant full-length human PIP5K1alpha at 1 uM using phosphatidylinositol 4-phosphate/phosphatidylserine as substrate after 40 mins in presence of [gamma-33P]ATP by scintillation counting method.
Assay [15] addresses Cyclin-dependent kinase 5/CDK5 activator 1 (Homo sapiens) (UniProt Q00535+Q15078). In words: Inhibition of recombinant full-length human CDK5/P25 at 1 uM using histone H1 as substrate after 40 mins in presence of [gamma-33P]ATP by scintillation counting method. It counts as protein-complex assay.
Assay [16] addresses Calcium/calmodulin-dependent protein kinase type II subunit beta (Homo sapiens) (UniProt Q13554). Put plainly: Inhibition of recombinant human CAMK2beta (1 to 315 residues) at 1 uM using […] after 40 mins in presence of [gamma-33P]ATP by scintillation counting method.
The target of assay [17] is Bone morphogenetic protein receptor type-2 (Homo sapiens) (UniProt Q13873). Put plainly: Inhibition of recombinant human BMPR2 (172 to 734 residues) at 1 uM using myelin basic protein as substrate after 120 mins in presence of [gamma-33P]ATP by scintillation counting method.
The target of assay [18] is Serine/threonine-protein kinase haspin (Homo sapiens) (UniProt Q8TF76). Put plainly: Inhibition of recombinant human Haspin (471 to end residues) at 1 uM using RARTLSFAEPG as substrate after 40 mins in presence of [gamma-33P]ATP by scintillation counting method.
In assay [19] the target is Death-associated protein kinase 2 (Homo sapiens) (UniProt Q9UIK4). Put plainly: Inhibition of recombinant full-length human DAPK2 at 1 uM using […] after 40 mins in presence of [gamma-33P]ATP by scintillation counting method.
The target of assay [20] is Serine/threonine-protein kinase Nek7 (Homo sapiens) (UniProt Q8TDX7). Put plainly: Inhibition of recombinant human NEK7 (2 to end residues) at 1 uM using FLAKSFGSPNRAYKK as substrate after 40 mins in presence of [gamma-33P]ATP by scintillation counting method.
For assay [21], the target named is G protein-coupled receptor kinase 5 (Homo sapiens) (UniProt P34947). Put plainly: Inhibition of recombinant full-length human GRK5 at 1 uM using casein as substrate after 40 mins in presence of [gamma-33P]ATP by scintillation counting method.
Assay [22] has as its target TRAF2 and NCK-interacting protein kinase (Homo sapiens) (UniProt Q9UKE5). In words: Inhibition of recombinant human TNIK (1 to 367 residues) at 1 uM using RLGRDKYKTLRQIRQ as substrate after 40 mins in presence of [gamma-33P]ATP by scintillation counting method.
Assay [23] deals with Hepatocyte growth factor receptor (Homo sapiens), P08581 [Y1248H]. In words: Inhibition of recombinant human Met Y1248H mutant (974 to end residues) at 1 uM using KKKGQEEEYVFIE as substrate after 40 mins in presence of [gamma-33P]ATP by scintillation counting method.

The values that follow come from ChEMBL document CHEMBL4190187, “Discovery of pyrazolopyrimidine derivatives as novel inhibitors of ataxia telangiectasia and rad3 related protein (ATR)” (Bioorg Med Chem Lett, 2017).

The structures appear in SMILES notation.

Chain of G protein-coupled receptor kinase 5 (Homo sapiens) (P34947 whole entry, looked up, the tested form may be a part): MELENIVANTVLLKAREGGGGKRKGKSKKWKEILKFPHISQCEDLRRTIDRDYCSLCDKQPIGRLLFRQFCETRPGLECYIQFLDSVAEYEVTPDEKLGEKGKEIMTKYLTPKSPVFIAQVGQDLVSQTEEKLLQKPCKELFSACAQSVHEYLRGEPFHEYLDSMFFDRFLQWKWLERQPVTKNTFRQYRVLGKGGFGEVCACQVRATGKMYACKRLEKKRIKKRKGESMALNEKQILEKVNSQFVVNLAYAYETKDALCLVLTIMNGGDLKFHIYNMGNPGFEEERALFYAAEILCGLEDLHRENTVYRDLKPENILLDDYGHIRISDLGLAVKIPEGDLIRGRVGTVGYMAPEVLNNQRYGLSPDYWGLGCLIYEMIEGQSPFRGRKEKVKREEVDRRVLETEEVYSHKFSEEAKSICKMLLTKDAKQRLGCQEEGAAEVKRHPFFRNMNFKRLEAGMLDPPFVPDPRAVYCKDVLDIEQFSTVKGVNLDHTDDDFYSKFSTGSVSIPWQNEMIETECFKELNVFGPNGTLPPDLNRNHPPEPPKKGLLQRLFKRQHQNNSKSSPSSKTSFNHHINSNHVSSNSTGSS
Chain of TRAF2 and NCK-interacting protein kinase (Homo sapiens) (Q9UKE5 whole entry, looked up, the tested form may be a part): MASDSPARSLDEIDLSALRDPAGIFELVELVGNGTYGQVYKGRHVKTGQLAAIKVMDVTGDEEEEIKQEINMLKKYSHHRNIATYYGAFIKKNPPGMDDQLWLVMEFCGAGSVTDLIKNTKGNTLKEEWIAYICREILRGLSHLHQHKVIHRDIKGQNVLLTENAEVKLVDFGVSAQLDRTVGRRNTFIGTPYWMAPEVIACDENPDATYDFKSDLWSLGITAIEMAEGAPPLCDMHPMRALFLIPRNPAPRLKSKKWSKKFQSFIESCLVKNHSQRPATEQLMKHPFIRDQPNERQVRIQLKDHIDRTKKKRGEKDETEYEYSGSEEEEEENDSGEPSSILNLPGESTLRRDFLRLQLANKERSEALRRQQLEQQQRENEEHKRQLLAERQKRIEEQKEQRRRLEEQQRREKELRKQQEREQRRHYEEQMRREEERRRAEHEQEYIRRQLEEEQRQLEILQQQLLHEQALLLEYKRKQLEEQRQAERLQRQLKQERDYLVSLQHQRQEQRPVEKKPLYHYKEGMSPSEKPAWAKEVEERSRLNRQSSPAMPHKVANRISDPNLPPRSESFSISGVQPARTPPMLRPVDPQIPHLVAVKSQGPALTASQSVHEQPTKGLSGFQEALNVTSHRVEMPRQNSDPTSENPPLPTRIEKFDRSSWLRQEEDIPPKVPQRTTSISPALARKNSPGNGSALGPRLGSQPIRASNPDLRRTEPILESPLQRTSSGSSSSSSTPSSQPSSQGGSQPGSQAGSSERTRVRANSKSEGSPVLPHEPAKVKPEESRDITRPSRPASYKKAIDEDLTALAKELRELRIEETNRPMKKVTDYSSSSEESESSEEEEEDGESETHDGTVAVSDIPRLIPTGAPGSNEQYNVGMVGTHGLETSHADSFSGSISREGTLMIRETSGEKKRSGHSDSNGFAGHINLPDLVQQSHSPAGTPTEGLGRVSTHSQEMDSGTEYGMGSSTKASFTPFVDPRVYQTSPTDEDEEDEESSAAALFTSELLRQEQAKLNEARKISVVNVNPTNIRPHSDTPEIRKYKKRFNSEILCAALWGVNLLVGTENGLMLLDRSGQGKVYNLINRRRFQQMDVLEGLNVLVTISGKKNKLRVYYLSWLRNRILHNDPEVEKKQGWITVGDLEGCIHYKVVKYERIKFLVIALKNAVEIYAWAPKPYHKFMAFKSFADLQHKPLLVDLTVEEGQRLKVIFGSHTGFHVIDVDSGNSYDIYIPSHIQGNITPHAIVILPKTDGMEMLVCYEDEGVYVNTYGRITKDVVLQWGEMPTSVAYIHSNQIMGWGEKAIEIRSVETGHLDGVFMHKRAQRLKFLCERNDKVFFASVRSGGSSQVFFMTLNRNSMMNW
Chain of Bone morphogenetic protein receptor type-2 (Homo sapiens) (Q13873 whole entry, the tested form may be a part): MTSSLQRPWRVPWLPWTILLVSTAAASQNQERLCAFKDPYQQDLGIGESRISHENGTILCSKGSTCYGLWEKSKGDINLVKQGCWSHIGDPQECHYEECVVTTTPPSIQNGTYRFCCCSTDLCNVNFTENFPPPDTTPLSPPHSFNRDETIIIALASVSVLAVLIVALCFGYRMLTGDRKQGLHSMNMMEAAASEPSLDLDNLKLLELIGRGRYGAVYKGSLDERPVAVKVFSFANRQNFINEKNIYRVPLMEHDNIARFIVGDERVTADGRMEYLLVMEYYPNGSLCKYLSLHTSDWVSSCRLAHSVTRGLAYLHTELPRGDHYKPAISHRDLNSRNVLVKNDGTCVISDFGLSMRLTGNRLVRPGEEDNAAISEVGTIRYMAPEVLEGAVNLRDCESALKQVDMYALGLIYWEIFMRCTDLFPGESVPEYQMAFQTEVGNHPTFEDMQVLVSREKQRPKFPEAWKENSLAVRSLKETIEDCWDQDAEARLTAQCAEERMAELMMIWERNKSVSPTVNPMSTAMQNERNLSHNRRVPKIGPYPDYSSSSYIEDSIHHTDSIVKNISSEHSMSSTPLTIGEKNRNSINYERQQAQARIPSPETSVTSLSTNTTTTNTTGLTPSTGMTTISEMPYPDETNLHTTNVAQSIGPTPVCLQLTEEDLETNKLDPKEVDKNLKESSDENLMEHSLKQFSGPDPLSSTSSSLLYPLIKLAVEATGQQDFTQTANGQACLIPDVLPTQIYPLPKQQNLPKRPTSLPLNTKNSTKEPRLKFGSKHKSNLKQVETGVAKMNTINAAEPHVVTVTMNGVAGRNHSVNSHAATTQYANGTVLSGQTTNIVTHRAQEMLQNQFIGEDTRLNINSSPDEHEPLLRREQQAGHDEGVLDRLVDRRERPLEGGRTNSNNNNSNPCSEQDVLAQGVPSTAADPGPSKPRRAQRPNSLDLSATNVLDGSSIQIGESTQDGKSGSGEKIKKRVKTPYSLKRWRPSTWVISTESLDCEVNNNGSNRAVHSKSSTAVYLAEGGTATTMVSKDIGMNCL
Chain of Phosphatidylinositol 4-phosphate 5-kinase type-1 alpha (Homo sapiens) (Q99755 whole entry): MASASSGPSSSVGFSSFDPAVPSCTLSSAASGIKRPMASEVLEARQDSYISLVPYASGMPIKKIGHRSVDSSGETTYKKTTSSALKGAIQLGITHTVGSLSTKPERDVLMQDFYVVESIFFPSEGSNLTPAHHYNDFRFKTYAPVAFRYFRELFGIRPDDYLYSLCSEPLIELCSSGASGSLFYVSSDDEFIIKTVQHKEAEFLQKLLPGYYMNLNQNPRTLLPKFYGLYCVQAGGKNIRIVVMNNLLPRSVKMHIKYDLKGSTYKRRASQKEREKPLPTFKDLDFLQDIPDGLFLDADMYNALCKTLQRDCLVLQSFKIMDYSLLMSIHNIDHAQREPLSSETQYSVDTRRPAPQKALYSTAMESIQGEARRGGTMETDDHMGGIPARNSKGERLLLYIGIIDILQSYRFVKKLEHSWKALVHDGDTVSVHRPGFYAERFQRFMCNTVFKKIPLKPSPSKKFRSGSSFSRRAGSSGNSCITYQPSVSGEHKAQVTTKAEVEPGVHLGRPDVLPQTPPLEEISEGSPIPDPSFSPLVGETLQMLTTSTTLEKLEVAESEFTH
Chain of Serine/threonine-protein kinase Nek7 (Homo sapiens) (Q8TDX7 whole entry, looked up): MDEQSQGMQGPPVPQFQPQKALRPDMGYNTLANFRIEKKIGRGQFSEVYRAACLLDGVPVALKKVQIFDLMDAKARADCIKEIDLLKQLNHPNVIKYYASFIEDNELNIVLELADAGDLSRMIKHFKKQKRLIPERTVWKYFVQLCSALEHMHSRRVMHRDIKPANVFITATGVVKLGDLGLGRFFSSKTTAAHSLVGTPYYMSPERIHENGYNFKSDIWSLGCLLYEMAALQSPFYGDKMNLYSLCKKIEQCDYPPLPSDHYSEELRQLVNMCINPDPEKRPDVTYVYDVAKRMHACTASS
Chain of Serine/threonine-protein kinase pim-2 (Homo sapiens) (Q9P1W9 whole entry, looked up): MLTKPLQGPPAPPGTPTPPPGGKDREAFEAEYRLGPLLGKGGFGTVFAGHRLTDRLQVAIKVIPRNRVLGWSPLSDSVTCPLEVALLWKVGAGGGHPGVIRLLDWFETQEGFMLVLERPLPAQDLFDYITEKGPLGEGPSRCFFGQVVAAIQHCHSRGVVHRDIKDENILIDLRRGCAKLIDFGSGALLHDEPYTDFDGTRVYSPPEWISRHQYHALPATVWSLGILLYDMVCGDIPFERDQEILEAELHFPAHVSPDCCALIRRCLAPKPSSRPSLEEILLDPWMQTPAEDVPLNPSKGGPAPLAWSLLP
Chain of Tyrosine-protein kinase Tec (Homo sapiens) (P42680 whole entry): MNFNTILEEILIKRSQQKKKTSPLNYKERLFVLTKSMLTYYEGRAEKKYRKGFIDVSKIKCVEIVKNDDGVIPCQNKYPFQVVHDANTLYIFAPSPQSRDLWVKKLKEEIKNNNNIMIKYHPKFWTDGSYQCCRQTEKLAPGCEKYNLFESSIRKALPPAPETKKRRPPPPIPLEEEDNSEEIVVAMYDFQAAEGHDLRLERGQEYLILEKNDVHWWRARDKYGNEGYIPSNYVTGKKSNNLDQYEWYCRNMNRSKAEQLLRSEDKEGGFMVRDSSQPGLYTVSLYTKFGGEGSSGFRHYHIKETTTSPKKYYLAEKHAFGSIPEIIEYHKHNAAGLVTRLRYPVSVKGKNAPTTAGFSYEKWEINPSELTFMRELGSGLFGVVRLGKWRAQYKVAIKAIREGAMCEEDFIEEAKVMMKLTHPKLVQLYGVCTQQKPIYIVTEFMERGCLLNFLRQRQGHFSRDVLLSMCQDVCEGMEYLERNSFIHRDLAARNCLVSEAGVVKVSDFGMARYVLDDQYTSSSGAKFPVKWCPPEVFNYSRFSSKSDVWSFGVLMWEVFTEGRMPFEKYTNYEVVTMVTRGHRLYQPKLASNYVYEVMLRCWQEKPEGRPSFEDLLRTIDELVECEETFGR
Chain of FKBP12A/mTOR (Homo sapiens) (P62942 2-108 limits assumed, other chains not shown): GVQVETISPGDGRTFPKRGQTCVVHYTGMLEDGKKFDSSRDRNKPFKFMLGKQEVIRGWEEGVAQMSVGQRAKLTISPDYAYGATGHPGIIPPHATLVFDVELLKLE

For the compound `CS(=O)(=O)c1ccc(-n2nc(-c3cnc4[nH]ccc4c3)c3c(N)ncnc32)cc1`, the inhibition is 7% in assay [1]; -2% in [2]; 55% in assay [3]; 78% in assay [4]; -4% in assay [5]; -8% in [6]. Besides, the inhibition in assay [7] was 3%; in assay [8], 3%; in [9], -2%; in [10] it was -7%; in assay [11], 7%; in assay [12], 52%. The inhibition is 35% in [13]; 2% in assay [14]; -1% in [15]; -4% in assay [16]; 2% in assay [17]; -9% in assay [18]. The inhibition in assay [19] is 4%; in assay [20] it was -1%; in assay [21], -1%; in assay [22], -9%; in assay [23] it was 4%.

The inhibition is the drop in the measured response relative to a control, in per cent.
